Measurements: paper PMC5589751, “Synthesis, high-throughput screening and pharmacological characterization of β–lactam derivatives as TRPM8 antagonists” (Scientific Reports, 2017)

Assays:
Format in all cases: cell-based
TRPM8 = biological target: T1, TRPM8 (Rattus norvegicus, UniProt Q8R455); assay: Ca2+ microfluorography (Fluo-4 NW), menthol-induced Ca2+ signal in HEK-CR1-TRPM8 cells; details: for % Block TRPM8 50 µM: 50 µM compound; for % Block TRPM8 50 µM / IC50: agonist 100 µM menthol, HEK-CR1-TRPM8 cells
T1 construct: expressed in transfected cells
T1 sequence (Q8R455 whole entry): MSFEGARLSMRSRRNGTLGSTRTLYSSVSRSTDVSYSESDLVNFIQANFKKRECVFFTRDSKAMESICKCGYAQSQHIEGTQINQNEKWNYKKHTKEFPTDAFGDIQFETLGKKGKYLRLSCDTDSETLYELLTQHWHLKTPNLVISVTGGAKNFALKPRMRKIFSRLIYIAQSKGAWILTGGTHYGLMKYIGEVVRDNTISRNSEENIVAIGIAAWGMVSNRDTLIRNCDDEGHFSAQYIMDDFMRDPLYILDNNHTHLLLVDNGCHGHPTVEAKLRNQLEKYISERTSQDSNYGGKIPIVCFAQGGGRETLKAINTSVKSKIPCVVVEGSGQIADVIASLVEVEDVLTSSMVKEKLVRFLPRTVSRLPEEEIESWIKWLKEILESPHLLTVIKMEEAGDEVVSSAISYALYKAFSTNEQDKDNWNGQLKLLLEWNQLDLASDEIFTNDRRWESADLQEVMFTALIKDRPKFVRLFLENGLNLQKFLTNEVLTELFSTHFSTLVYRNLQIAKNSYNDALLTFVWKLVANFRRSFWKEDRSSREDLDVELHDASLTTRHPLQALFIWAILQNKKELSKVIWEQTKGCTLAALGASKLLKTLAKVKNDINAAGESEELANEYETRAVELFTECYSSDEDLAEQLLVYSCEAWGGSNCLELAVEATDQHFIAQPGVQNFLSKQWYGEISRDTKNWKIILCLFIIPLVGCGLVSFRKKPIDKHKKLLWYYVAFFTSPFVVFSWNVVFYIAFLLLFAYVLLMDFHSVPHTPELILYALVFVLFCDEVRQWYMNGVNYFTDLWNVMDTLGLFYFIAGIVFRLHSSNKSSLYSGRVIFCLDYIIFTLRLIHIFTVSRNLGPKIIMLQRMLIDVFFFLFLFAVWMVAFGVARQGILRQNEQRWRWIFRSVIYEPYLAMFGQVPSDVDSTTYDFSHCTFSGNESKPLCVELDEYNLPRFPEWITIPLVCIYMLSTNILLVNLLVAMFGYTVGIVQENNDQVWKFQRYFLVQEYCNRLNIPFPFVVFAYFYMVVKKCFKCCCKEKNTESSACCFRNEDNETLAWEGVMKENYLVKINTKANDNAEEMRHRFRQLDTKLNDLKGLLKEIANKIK
Protocol: (§1) All compounds were tested at two different concentrations (50 and 5 µM) on TRPM8 and TRPV1 channels stably expressed in HEK and SH-SY5Y cell lines, respectively. The agonist induced intracellular Ca^2+ signals were measured using a fluorescent Ca^2+ indicator, in the absence and in the presence of test compounds. […] The obtained results were compared to those of 68 (AMTB, TRPM8 antagonist) and ruthenium red (TRPV1 antagonist). The IC50 values for the assay on TRPM8 were also calculated.
(§2) For fluorescence assays, cells expressing TRP channels (SH-SY5Y-TRPV1 and HEKCR1-TRPM8) were seeded in 96-well plates (Corning Incorporated, Corning, NY) at a cell density of 40,000 cells 2 days before treatment. The day of treatment the medium was replaced with 100 µL of the dye loading solution Fluo-4 NW supplemented with probenecid 2.5 mM. Then the compounds dissolved in DMSO were added at the desired concentrations and the plate(s) were incubated at 37 °C in a humidified atmosphere of 5% CO2 for 60 minutes.
(§3) The fluorescence was measured using instrument settings appropriate for excitation at 485 nm and emission at 535 nm (POLARstar Omega BMG LABtech). […] The corresponding antagonist
(§4) (10 µM Ruthenium Red forTRPV1 and 10 µM 68 for TRPM8) was added for the blockade. The changes in fluorescence intensity were recorded during 15 cycles more. […] The blocking percentage was calculated as follow (Eq. 1):1 %TRPBlockedResponse=(1−Fo−Fi/FCo−FCi)∗100 where Fo is the fluorescence after the addition of menthol in the presence of the compound, Fi is the fluorescence before the addition of menthol in the presence of the compound, FCo is the fluorescence after the addition of menthol in the absence of the compound, FCi is the fluorescence before the addition of menthol in the absence of the compound. To guarantee that our results were useful we only used assays with a Z-factor higher than 0.5.
(§5) The statistical Z-factor to determine the quality of the HTS experiment as was calculated using the equation 2:2 Z‐factor=1−3∗(SDmax+SDmin)/Meanmax−Meanmin where: Meanmax is the mean of the maximum fluorescence in the presence of agonist, SDmax is the standard deviation of the maximum fluorescence in the presence of agonists, Meanmin is the mean of the maximum fluorescence in the presence of agonist and antagonist and SDmin is the standard deviation of the maximum fluorescence in the presence of agonist and antagonist.

TRPV1 = TRPV1 (Rattus norvegicus, UniProt O35433); assay: Ca2+ microfluorography (Fluo-4 NW), capsaicin-induced Ca2+ signal in SH-SY5Y-TRPV1 cells; details: 50 µM compound; agonist 10 µM capsaicin; SH-SY5Y-TRPV1 cells
Protocol: as §1, §2, §3, §4, §5

hTRPV1 = biological target: T2, hTRPV1 (Homo sapiens, UniProt Q8NER1); assay: Whole-cell patch clamp in cells expressing hTRPV1
T2 construct: expressed in transfected cells; host or cells: HEK
T2 sequence (Q8NER1 whole entry): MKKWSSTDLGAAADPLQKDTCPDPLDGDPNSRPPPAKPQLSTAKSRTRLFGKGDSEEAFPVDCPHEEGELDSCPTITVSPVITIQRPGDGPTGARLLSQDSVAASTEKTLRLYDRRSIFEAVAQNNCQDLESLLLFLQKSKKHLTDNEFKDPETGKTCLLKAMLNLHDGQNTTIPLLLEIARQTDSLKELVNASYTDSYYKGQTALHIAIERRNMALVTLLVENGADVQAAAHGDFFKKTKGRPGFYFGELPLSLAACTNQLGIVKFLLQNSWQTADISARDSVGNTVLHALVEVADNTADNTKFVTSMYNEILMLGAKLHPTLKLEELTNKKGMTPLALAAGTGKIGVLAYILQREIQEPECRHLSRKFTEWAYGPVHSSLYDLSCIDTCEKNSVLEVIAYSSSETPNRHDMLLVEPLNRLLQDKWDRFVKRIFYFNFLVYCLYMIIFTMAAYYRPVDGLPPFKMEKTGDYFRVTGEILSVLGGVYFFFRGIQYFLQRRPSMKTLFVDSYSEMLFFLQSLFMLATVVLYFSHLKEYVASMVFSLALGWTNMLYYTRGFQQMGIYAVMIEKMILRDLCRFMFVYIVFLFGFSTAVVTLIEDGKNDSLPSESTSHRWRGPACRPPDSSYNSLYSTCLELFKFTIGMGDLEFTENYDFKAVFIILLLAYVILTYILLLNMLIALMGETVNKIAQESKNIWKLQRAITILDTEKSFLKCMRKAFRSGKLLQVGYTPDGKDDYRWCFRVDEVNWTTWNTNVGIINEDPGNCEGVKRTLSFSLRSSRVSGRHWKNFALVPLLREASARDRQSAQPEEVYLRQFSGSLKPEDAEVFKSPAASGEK
Protocol: (§6) Electrophysiological recording was carried out 1-3 d after cells seeded. Membrane currents and voltages were recorded by patch clamp using the whole-cell configuration. […] In calcium-free bath solution, CaCl2 was replaced with 5mM EGTA. For potassium and sodium recordings, CsCl was substituted by KCl and the pH was adjusted to pH 7.2 with KOH. Patch pipettes were prepared from thin-walled borosilicate glass capillaries (World Precision Instruments, Sarasota, FL, USA), pulled with a horizontal puller (P-97, Sutter Instruments, Novato, CA, USA) to have a tip resistance of 2-4 MΩ when filled with internal solutions. Data were sampled at 10 kHz (EPC10 amplifier with PatchMaster 2.53 software, HEKA Electronics, Lambrecht, Germany) and low-pass filtered at 3 kHz for analysis (PatchMaster 2.53 and GraphPad Prism 5, Graphpad Software, USA). The series resistance was <10 MΩ and to minimize voltage errors was compensated to 60-80%. All measurements were performed at 24-25°C. The temperature was adjusted with a water-cooled Peltier device placed at the inlet of the chamber and controlled by a feedback device (Automatic Temperature Controller TC-324B, Warner Instruments). Cold-sensitivity was investigated with a temperature decrease to 16-18 °C. page 44: Figure 1S. […] A) […] compound 41 (blue line). Pre-application of compound (20 s) was followed by coapplication with 500 […] 41. […] C) […] Pre-application of […] Voltage was held at -60 mV for all the experiments. […] (1 picture or pasted object on this page, not shown here)

TRPA1 = TRPA1 (Homo sapiens, UniProt O75762); assay: Whole-cell patch clamp in cells expressing TRPA1
Sequence of TRPA1 (O75762 whole entry, species assumed): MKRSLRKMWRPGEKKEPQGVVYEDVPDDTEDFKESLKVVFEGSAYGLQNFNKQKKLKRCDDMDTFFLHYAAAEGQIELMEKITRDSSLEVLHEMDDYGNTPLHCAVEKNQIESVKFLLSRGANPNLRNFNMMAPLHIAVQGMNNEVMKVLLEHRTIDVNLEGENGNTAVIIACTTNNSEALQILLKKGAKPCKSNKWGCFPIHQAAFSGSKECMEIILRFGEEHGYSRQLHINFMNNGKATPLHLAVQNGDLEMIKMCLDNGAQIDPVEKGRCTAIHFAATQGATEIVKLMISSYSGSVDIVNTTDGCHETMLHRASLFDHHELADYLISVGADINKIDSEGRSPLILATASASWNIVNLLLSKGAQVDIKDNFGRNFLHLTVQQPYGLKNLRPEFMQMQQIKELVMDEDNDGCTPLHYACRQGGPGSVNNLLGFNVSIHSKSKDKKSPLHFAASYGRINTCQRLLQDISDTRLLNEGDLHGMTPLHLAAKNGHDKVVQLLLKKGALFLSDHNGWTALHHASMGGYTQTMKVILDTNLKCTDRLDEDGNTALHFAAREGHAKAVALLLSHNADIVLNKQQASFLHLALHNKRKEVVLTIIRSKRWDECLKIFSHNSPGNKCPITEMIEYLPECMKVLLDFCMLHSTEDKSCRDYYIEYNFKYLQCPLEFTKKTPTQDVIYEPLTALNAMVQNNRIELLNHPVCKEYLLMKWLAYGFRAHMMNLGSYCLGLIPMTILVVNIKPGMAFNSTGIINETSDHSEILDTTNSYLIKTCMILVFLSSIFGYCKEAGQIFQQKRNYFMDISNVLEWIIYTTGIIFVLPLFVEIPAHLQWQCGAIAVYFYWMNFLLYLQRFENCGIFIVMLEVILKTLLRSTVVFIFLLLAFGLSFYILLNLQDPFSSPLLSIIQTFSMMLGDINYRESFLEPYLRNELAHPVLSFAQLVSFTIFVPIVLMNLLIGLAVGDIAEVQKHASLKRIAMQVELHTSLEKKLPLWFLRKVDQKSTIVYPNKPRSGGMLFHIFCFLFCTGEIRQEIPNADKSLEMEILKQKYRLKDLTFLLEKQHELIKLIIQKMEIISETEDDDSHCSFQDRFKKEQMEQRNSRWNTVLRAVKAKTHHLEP
Protocol: as §6

NaV1.6 = NaV1.6 (Homo sapiens, UniProt Q9UQD0); assay: Whole-cell patch clamp in cells expressing NaV1.6
Sequence of NaV1.6 (Q9UQD0 whole entry): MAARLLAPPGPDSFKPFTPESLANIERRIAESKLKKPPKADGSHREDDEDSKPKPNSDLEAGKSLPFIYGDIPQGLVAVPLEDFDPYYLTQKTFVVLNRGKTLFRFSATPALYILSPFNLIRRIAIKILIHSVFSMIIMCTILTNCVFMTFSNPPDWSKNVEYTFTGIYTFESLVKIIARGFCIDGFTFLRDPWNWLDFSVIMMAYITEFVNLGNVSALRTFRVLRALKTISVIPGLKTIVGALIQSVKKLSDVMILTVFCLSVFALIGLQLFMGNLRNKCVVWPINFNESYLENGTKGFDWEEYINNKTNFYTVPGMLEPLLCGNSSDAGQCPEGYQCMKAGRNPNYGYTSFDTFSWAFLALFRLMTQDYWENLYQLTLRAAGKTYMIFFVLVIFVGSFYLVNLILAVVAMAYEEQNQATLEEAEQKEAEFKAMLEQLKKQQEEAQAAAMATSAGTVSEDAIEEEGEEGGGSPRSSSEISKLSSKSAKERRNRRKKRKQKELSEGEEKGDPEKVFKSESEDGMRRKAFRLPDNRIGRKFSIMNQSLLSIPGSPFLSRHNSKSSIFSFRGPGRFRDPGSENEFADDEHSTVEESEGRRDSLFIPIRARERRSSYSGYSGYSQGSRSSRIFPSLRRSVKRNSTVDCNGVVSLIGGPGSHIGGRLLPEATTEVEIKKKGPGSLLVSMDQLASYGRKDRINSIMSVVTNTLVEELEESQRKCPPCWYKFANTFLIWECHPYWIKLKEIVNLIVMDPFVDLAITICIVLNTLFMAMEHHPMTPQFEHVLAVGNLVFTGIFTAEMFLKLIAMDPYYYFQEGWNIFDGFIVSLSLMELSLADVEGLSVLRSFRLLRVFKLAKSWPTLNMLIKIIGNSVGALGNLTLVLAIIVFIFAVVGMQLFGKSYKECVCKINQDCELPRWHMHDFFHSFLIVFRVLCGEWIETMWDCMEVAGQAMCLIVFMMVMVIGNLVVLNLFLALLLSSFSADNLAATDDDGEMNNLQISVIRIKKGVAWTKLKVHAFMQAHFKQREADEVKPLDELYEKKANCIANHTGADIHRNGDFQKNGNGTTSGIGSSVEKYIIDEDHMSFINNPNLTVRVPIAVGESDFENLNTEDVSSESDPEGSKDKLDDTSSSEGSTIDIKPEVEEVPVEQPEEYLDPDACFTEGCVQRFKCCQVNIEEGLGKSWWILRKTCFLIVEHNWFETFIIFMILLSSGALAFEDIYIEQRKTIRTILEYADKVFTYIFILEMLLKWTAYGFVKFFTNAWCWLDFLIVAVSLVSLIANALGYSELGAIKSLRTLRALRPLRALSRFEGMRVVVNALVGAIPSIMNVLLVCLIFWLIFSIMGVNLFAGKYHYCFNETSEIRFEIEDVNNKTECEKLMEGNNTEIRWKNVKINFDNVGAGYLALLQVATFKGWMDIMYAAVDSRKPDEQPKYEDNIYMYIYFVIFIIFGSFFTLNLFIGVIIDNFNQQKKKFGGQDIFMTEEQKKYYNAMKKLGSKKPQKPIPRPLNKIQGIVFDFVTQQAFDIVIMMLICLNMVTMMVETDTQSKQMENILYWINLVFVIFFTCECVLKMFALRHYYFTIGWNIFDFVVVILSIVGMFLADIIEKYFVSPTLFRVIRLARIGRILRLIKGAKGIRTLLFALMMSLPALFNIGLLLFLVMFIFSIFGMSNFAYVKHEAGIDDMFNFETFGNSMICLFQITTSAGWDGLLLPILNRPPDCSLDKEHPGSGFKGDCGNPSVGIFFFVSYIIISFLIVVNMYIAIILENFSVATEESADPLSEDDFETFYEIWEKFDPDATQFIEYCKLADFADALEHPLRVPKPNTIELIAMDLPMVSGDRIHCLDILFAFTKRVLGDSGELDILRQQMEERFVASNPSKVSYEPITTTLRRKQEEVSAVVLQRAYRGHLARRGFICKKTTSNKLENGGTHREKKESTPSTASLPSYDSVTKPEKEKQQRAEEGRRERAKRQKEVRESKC
Protocol: Electrophysiological recording was carried out 1–3 d after cells seeded. Membrane currents and voltages were recorded by patch clamp using the whole-cell configuration. For whole-cell recordings of HEK-hTRPV1 and HEK-TRPM8 cells, pipette solution contained (in mM) 140 CsCl, 5 EGTA, and 10 HEPES, adjusted to pH 7.2 with CsOH, and bath solution contained (in mM) 140 NaCl, 5 KCl, 2 CaCl2, 2 MgCl2, 5 EGTA, 10 D-glucose, 10 Mannitol and 10 HEPES, adjusted to pH 7.4 with NaOH. In calcium-free bath solution, CaCl2 was replaced with 5mM EGTA. For potassium and sodium recordings, CsCl was substituted by KCl and the pH was adjusted to pH 7.2 with KOH. Patch pipettes were prepared from thin-walled borosilicate glass capillaries (World Precision Instruments, Sarasota, FL, USA), pulled with a horizontal puller (P-97, Sutter Instruments, Novato, CA, USA) to have a tip resistance of 2–4 MΩ when filled with internal solutions. Data were sampled at 10 kHz (EPC10 amplifier with PatchMaster 2.53 software, HEKA Electronics, Lambrecht, Germany) and low-pass filtered at 3 kHz for analysis (PatchMaster 2.53 and GraphPad Prism 5, Graphpad Software, USA). The series resistance was <10 MΩ and to minimize voltage errors was compensated to 60–80%. All measurements were performed at 24–25°C. […]

In the case of `CC(C)(C)OC(=O)N[C@@H](CCN1C(=O)CC1(Cc1ccccc1)C(=O)OCc1ccccc1)C(=O)OCc1ccccc1` (stereo partly drawn) [Compound 41, 4R,S-Benzyl-4-benzyloxycarbonyl-1-[(3′S-benzyloxycarbonyl-3-tert-butoxycarbonylamino-3′-benzyloxycarbonyl)prop-1′-yl]-2-oxoazetidine], the “blocking effect against TRPM8 at 5 µM” value (TRPM8; 5 µM compound) is reported as 95%, the “% Block TRPM8 50 µM” value (TRPM8) is reported as 96.3 ± 1.6% and the IC50 (TRPM8) is reported as 420 nM. The “% Block TRPV1 50 µM” value (TRPV1) was 38.3 ± 17.9%, the IC50 (hTRPV1) was greater than 1000 nM and the “agonist activity (activation) on TRPV1” value (hTRPV1; 1 µM compound, −60 mV) was “did not produce activation”. For the same compound, the IC50 (TRPA1) was greater than 1000 nM, the “agonist activity (activation) on TRPA1” value (TRPA1; 1 µM compound, −60 mV) was “did not produce activation” and the IC50 (NaV1.6) was greater than 1000 nM.

`CC1C(=O)N(CC[C@H](NC(=O)OC(C)(C)C)C(=O)OCc2ccccc2)C1(Cc1ccccc1)C(=O)OCc1ccccc1` (stereo partly drawn) [Compound 45, 4R,S-Benzyl-4-benzyloxycarbonyl-1-[(3′S-benzyloxycarbonyl-3′-tert-butoxycarbonylamino)prop-1′-yl]-(3R,S)-methyl-2-oxoazetidine] was tested, and the “% Block TRPM8 50 µM” value (TRPM8) was 100%, the IC50 (TRPM8) was 800 ± 1170 nM and the “% Block TRPV1 50 µM” value (TRPV1) was 31.8 ± 6.5%. The IC50 (hTRPV1) was greater than 1000 nM, the IC50 (TRPA1) was greater than 1000 nM and the IC50 (NaV1.6) was greater than 1000 nM.
